Assay results: PMC10870240 (Chembiochem : a European journal of chemical biology, 2023)

Molecular target: full-length CBP (Homo sapiens, UniProt Q92793)
Assay: cellular thermal shift assay
Type: biochemical
Settings: 25 μM garcinolic acid, MV4-11 nuclear extract

full-length CBP, sequence (Q92793 2-2442): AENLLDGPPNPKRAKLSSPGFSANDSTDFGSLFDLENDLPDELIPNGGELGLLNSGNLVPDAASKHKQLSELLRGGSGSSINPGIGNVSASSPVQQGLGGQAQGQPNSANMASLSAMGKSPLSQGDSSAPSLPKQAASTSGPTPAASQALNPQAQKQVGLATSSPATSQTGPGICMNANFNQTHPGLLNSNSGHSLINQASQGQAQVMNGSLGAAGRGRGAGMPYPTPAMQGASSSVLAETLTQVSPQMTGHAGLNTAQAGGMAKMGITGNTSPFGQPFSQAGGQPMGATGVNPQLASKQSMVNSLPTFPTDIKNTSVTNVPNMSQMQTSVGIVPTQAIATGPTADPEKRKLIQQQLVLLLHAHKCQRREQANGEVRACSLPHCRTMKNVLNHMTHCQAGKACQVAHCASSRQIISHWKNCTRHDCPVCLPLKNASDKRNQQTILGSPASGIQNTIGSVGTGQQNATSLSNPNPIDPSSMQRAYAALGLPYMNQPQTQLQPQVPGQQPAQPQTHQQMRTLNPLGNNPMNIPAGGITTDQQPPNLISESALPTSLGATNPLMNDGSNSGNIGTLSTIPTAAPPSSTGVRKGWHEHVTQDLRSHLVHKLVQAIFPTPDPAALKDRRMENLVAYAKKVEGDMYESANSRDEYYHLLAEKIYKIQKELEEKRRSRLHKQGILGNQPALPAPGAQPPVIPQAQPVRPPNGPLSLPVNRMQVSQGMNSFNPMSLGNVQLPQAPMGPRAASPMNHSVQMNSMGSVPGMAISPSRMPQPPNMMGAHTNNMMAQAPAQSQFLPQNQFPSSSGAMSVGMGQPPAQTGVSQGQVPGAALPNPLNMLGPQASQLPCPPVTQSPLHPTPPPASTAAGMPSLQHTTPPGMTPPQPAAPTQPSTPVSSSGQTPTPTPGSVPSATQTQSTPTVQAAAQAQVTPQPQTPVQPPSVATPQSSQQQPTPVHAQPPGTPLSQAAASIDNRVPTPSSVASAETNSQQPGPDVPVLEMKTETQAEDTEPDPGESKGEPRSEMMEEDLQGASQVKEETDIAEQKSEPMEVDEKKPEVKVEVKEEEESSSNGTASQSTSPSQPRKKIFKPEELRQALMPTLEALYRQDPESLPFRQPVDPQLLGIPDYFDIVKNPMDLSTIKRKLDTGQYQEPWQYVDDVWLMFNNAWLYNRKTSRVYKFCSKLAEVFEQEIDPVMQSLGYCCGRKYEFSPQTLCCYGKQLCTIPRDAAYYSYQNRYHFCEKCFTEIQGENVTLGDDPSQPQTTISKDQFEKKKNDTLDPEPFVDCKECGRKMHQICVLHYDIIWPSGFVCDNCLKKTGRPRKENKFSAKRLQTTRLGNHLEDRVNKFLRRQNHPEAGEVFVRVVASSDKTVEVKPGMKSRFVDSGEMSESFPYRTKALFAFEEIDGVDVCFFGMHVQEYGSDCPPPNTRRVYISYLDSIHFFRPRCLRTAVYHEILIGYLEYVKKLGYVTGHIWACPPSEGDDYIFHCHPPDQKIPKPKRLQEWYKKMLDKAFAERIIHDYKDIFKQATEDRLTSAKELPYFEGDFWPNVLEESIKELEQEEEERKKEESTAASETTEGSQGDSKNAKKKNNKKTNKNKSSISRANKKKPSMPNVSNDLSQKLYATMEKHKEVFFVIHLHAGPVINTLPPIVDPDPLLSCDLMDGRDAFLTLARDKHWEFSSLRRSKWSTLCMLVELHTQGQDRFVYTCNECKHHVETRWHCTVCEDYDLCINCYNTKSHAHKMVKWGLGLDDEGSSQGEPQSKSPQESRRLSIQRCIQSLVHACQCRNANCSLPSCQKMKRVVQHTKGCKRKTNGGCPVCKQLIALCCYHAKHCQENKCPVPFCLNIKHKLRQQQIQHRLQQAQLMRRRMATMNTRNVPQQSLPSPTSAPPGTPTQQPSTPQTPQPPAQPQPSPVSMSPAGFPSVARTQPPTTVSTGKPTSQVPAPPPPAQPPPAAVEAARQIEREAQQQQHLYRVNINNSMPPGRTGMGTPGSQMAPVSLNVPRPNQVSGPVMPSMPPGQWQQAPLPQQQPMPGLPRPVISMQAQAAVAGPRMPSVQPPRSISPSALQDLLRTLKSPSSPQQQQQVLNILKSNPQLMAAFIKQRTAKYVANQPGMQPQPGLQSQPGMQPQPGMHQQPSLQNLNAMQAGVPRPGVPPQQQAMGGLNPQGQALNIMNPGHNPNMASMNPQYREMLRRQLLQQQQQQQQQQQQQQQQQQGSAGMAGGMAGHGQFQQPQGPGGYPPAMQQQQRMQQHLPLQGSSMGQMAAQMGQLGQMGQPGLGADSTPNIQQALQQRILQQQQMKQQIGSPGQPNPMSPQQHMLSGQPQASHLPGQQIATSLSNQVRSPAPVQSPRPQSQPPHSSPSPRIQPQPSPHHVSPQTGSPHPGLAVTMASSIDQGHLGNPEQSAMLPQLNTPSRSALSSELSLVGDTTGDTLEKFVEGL

With `CC(C)=CCCC1(C)C=Cc2c(O)c3c(c(CC=C(C)C)c2O1)OC12C(=CCCC1C(C)(C)O[C@@]2(C/C=C(\C)C(=O)O)C(=O)O)C3=O` (stereo partly shown) [garcinolic acid] the “cellular thermal shift assay (Western blot)” value was “intact CBP is still observed in the garcinolic acid treated samples”.
